Results as given in patent US8778872B2 (priority 2010, dated 2014).
Where two headings read alike, the source gives them in different places. Where a SMILES comes first, the peptide text is derived from it. Where no end group is shown, it is not given here. Side-chain parts run from the residue outwards. [ ]: non-standard residue; d: D form. Ac6c = NC1(C(=O)O)CCCCC1; Ac3c = NC1(C(=O)O)CC1; Aib = CC(C)(N)C(=O)O; PEG40k = 40 kDa PEG; Sar = CNCC(=O)O

Tests used:
GLP-1 receptor = target: T1, GLP-1 receptor (Homo sapiens, UniProt P43220); test: Luciferase-based reporter gene assay for cAMP detection, HEK293 cells co-transfected with GLP-1 receptor (prodrug samples pre-incubated in PBS or plasma); type: cell-based
T1 construct: expressed in transfected cells; host or cells: HEK293
Protocol: To explore the possible formation of DKP and simultaneous regeneration of the parent drug, 40 k PEG-Aib^−1-P^0,C^24GLP(7-36) was incubated in PBS buffer at 37° C. for approximately 10 days.

[1] = Dipeptide cleavage half time in PBS on model hexapeptide (HPLC / LC-MS); conditions: for Relative peak area(%), HPLC peak a / Relative peak area(%), HPLC peak b: PBS; for Relative peak area(%), HPLC peak a: peak a MW 702; for Relative peak area(%), HPLC peak b: peak b MW 902; for half-life: buffer
Protocol: (§1) The flow rate was 1 mL/min. Solvent A contained 0.1% TFA in distilled water, and solvent B contained 0.1% TFA in 90% CH3CN. A linear gradient was employed (0% to 30% B in 10 minutes). The data were collected and analyzed using Peak Simple Chromatography software.
(§2) The initial rates of cleavage were used to measure the rate constant for the dissociation of the respective prodrugs. […] The first order dissociation rate constants of the prodrugs were determined by plotting the logarithm of the concentration of the prodrug at various time intervals. The slope of this plot gives the rate constant ‘k’.

[2] = buffer
Protocol: as §1, §2

T1 sequence (P43220 24-463, species assumed): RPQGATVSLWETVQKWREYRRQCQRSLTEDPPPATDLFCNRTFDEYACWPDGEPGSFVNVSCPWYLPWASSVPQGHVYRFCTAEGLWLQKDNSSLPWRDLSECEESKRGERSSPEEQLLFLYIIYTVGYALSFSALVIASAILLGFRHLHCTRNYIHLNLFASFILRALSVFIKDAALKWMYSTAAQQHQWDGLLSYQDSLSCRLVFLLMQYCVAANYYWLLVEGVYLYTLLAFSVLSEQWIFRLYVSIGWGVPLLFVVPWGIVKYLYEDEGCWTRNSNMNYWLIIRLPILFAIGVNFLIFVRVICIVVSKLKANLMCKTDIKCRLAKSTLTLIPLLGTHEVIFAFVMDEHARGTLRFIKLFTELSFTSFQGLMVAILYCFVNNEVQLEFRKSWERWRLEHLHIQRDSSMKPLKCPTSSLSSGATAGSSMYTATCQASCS

For “40 kPEG-Aib^−1-P^0,C^24GLP(7-36): Aib^−1-P^0,C^24GLP(7-36) pegylated by maleimido-functioned 40 k Da PEG on the SH group of 24-Cys ([Aib]PHAEGTFTSDVSSYLEGQAAKEFIC([maleimide-PEG40k])WLVKGR)”, the EC50%/STD ratio (GLP-1 receptor; prodrug incubated in PBS at 37° C. for 30 h) was 17.31%, the EC50%/STD ratio (GLP-1 receptor; prodrug incubated in PBS at 37° C. for 54 h) was 27.74% and the EC50%/STD ratio (GLP-1 receptor; prodrug incubated in PBS at 37° C. for 240 h) was 66.49%. For the same compound, the EC50%/STD ratio (GLP-1 receptor; prodrug incubated in PBS at 37° C. for […]) was 55.90%.

With `C[C@@H](O)[C@H](NC(=O)CNC(=O)[C@H](CCCNC(=N)N)NC(=O)[C@H](CO)NC(=O)[C@H](Cc1c[nH]cn1)NC(=O)CN(C)C(=O)[C@@H](N)CCCCN)C(=O)N[C@@H](Cc1ccccc1)C(N)=O` [A peptide, lys-sar-HSRGTF-NH2] (H-K[Sar]HSRGTF-NH2; N-terminus assumed) the “Relative peak area(%), HPLC peak a” value ([1]; 5 h) was 26.5%, the “Relative peak area(%), HPLC peak b” value ([1]; 5 h) was 73.5% and the “Relative peak area(%), HPLC peak a” value ([1]; 8 h) was 28.9%. The “Relative peak area(%), HPLC peak b” value ([1]; 8 h) was 71.1%, the “Relative peak area(%), HPLC peak a” value ([1]; 24 h) was 28.8% and the “Relative peak area(%), HPLC peak b” value ([1]; 24 h) was 71.2%. For the same compound, the “Relative peak area(%), HPLC peak a” value ([1]; 31 h) was 77.7%, the “Relative peak area(%), HPLC peak b” value ([1]; 31 h) was 22.3% and the “Relative peak area(%), HPLC peak a” value ([1]; 47 h) was 90.0%. The “Relative peak area(%), HPLC peak b” value ([1]; 47 h) was 10.0%.

`C[C@@H](O)[C@H](NC(=O)CNC(=O)[C@H](CCCNC(=N)N)NC(=O)[C@H](CO)NC(=O)[C@H](Cc1c[nH]cn1)NC(=O)[C@@H](N)Cc1ccc(NC(=O)[C@@H]2CCCN2C(=O)[C@@H](N)Cc2ccccc2)cc1)C(=O)N[C@@H](Cc1ccccc1)C(N)=O` [Compounds 1] gave a half-life [1] of 58 h.

Work on `C[C@@H](O)[C@H](NC(=O)CNC(=O)[C@H](CCCNC(=N)N)NC(=O)[C@H](CO)NC(=O)[C@H](Cc1c[nH]cn1)NC(=O)[C@@H](N)Cc1ccc(NC(=O)[C@@H]2CCCN2C(=O)[C@H](N)Cc2ccccc2)cc1)C(=O)N[C@@H](Cc1ccccc1)C(N)=O` [Compounds 3] yielded a half-life [1] of 20 h.

Compound `C[C@@H](O)[C@H](NC(=O)CNC(=O)[C@H](CCCNC(=N)N)NC(=O)[C@H](CO)NC(=O)[C@H](Cc1c[nH]cn1)NC(=O)[C@@H](N)Cc1ccc(NC(=O)[C@H]2CCCN2C(=O)[C@H](N)Cc2ccccc2)cc1)C(=O)N[C@@H](Cc1ccccc1)C(N)=O` [Compounds 4] has a half-life [1] of 39 h.

In the case of `C[C@@H](O)[C@H](NC(=O)CNC(=O)[C@H](CCCNC(=N)N)NC(=O)[C@H](CO)NC(=O)[C@H](Cc1c[nH]cn1)NC(=O)[C@@H](N)Cc1ccc(NC(=O)[C@@H]2CCCN2C(=O)CN)cc1)C(=O)N[C@@H](Cc1ccccc1)C(N)=O` [Compounds 5], the half-life [1] was 72 h.

Compound `C[C@@H](O)[C@H](NC(=O)CNC(=O)[C@H](CCCNC(=N)N)NC(=O)[C@H](CO)NC(=O)[C@H](Cc1c[nH]cn1)NC(=O)[C@@H](N)Cc1ccc(NC(=O)[C@@H]2CCCN2C(=O)CO)cc1)C(=O)N[C@@H](Cc1ccccc1)C(N)=O` [Compounds 6] has a half-life [1] of 603 h.

Work on `CC(C)C[C@H](N)C(=O)N1CCC[C@H]1C(=O)Nc1ccc(C[C@H](N)C(=O)N[C@@H](Cc2c[nH]cn2)C(=O)N[C@@H](CO)C(=O)N[C@@H](CCCNC(=N)N)C(=O)NCC(=O)N[C@H](C(=O)N[C@@H](Cc2ccccc2)C(N)=O)[C@@H](C)O)cc1` [Compounds 7] yielded a half-life [1] of 62 h.

Compound `C[C@@H](O)[C@H](NC(=O)CNC(=O)[C@H](CCCNC(=N)N)NC(=O)[C@H](CO)NC(=O)[C@H](Cc1c[nH]cn1)NC(=O)[C@@H](N)Cc1ccc(NC(=O)[C@@H]2CCCN2C(=O)[C@@H](N)C(C)(C)C)cc1)C(=O)N[C@@H](Cc1ccccc1)C(N)=O` [Compounds 8] has a half-life [2] of 200 h.

Compound `C[C@@H](O)[C@H](NC(=O)CNC(=O)[C@H](CCCNC(=N)N)NC(=O)[C@H](CO)NC(=O)[C@H](Cc1c[nH]cn1)NC(=O)[C@@H](N)Cc1ccc(NC(=O)[C@@H]2CCCN2C(=O)[C@@H](N)CO)cc1)C(=O)N[C@@H](Cc1ccccc1)C(N)=O` [Compounds 9] has a half-life [1] of 34 h.

Work on `C[C@@H](O)[C@H](NC(=O)CNC(=O)[C@H](CCCNC(=N)N)NC(=O)[C@H](CO)NC(=O)[C@H](Cc1c[nH]cn1)NC(=O)[C@@H](N)Cc1ccc(NC(=O)[C@@H]2CCCN2C(=O)[C@@H]2CCCN2)cc1)C(=O)N[C@@H](Cc1ccccc1)C(N)=O` [Compounds 10] yielded a half-life [1] of 97 h.

Work on `C[C@@H](O)[C@H](NC(=O)CNC(=O)[C@H](CCCNC(=N)N)NC(=O)[C@H](CO)NC(=O)[C@H](Cc1c[nH]cn1)NC(=O)[C@@H](N)Cc1ccc(NC(=O)[C@@H]2CCCN2C(=O)[C@@H](N)CCCCN)cc1)C(=O)N[C@@H](Cc1ccccc1)C(N)=O` [Compounds 11] yielded a half-life [1] of 33 h.

For `C[C@@H](O)[C@H](NC(=O)CNC(=O)[C@H](CCCNC(=N)N)NC(=O)[C@H](CO)NC(=O)[C@H](Cc1c[nH]cn1)NC(=O)[C@@H](N)Cc1ccc(NC(=O)[C@@H]2CCCN2C(=O)[C@H](N)CCCCN)cc1)C(=O)N[C@@H](Cc1ccccc1)C(N)=O` [Compounds 12], the half-life [1] was 11 h.

`C[C@@H](O)[C@H](NC(=O)CNC(=O)[C@H](CCCNC(=N)N)NC(=O)[C@H](CO)NC(=O)[C@H](Cc1c[nH]cn1)NC(=O)[C@@H](N)Cc1ccc(NC(=O)[C@@H]2CCCN2C(=O)[C@@H](N)CCC(=O)O)cc1)C(=O)N[C@@H](Cc1ccccc1)C(N)=O` [Compounds 13] showed a half-life [1] of 85 h.

`CNCC(=O)N1CCC[C@H]1C(=O)Nc1ccc(C[C@H](N)C(=O)N[C@@H](Cc2c[nH]cn2)C(=O)N[C@@H](CO)C(=O)N[C@@H](CCCNC(=N)N)C(=O)NCC(=O)N[C@H](C(=O)N[C@@H](Cc2ccccc2)C(N)=O)[C@@H](C)O)cc1` [Compounds 14] showed a half-life [1] of about 1000 h.

`C[C@@H](O)[C@H](NC(=O)CNC(=O)[C@H](CCCNC(=N)N)NC(=O)[C@H](CO)NC(=O)[C@H](Cc1c[nH]cn1)NC(=O)[C@@H](N)Cc1ccc(NC(=O)[C@@H]2CCCN2C(=O)C(C)(C)N)cc1)C(=O)N[C@@H](Cc1ccccc1)C(N)=O` [Compounds 15] showed a half-life [2] of 1.15 h.

With `C[C@@H](O)[C@H](NC(=O)CNC(=O)[C@H](CCCNC(=N)N)NC(=O)[C@H](CO)NC(=O)[C@H](Cc1c[nH]cn1)NC(=O)[C@@H](N)Cc1ccc(NC(=O)[C@@H]2CCCN2C(=O)C(C)(C)O)cc1)C(=O)N[C@@H](Cc1ccccc1)C(N)=O` [Compounds 16] the half-life [2] was 33 h.

In the case of `C[C@@H](O)[C@H](NC(=O)CNC(=O)[C@H](CCCNC(=N)N)NC(=O)[C@H](CO)NC(=O)[C@H](Cc1c[nH]cn1)NC(=O)[C@@H](N)Cc1ccc(NC(=O)[C@@H]2CCCN2C(=O)C2(N)CCCCC2)cc1)C(=O)N[C@@H](Cc1ccccc1)C(N)=O` [Compounds 17], the half-life [2] was 0.1 h.

For `C[C@@H](O)[C@H](NC(=O)CNC(=O)[C@H](CCCNC(=N)N)NC(=O)[C@H](CO)NC(=O)[C@H](Cc1c[nH]cn1)NC(=O)[C@@H]1CCCN1C(=O)C1(N)CCCCC1)C(=O)N[C@@H](Cc1ccccc1)C(N)=O` [Peptide 17] (H-[Ac6c]PHSRGTF-NH2), the half-life [1] was 5 h.

`C[C@@H](O)[C@H](NC(=O)CNC(=O)[C@H](CCCNC(=N)N)NC(=O)[C@H](CO)NC(=O)[C@H](Cc1c[nH]cn1)NC(=O)[C@@H]1CCCN1C(=O)C1(N)CC1)C(=O)N[C@@H](Cc1ccccc1)C(N)=O` [Peptide 18] (H-[Ac3c]PHSRGTF-NH2) showed a half-life [1] of 10 h.
